Source: ChEMBL document CHEMBL1138334, “From astemizole to a novel hit series of small-molecule somatostatin 5 receptor antagonists via GPCR affinity profiling” (J Med Chem, 2007)

Columns and labels:
[1] = target: Somatostatin receptor type 5 (Homo sapiens, UniProt P35346); test: Binding affinity to human SST5R
[2] = target: Somatostatin receptor type 1 (Homo sapiens, UniProt P30872); test: Binding affinity to human SST1R
[3] = target: Somatostatin receptor type 2 (Homo sapiens, UniProt P30874); test: Binding affinity to human SST2R
Somatostatin receptor type 2, sequence (P30874 whole entry): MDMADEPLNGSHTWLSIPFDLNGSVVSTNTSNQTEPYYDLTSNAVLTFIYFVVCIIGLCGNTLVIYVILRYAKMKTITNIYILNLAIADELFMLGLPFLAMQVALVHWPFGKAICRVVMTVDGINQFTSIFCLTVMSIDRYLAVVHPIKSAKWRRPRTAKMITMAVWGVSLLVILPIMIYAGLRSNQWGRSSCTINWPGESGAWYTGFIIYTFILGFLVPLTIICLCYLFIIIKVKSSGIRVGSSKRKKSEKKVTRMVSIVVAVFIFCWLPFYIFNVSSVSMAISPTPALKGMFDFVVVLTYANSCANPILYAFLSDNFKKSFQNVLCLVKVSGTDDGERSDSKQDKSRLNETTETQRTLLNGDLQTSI

[4] = target: Somatostatin receptor type 3 (Homo sapiens, UniProt P32745); test: Binding affinity to human SST3R
Somatostatin receptor type 3, sequence (P32745 whole entry): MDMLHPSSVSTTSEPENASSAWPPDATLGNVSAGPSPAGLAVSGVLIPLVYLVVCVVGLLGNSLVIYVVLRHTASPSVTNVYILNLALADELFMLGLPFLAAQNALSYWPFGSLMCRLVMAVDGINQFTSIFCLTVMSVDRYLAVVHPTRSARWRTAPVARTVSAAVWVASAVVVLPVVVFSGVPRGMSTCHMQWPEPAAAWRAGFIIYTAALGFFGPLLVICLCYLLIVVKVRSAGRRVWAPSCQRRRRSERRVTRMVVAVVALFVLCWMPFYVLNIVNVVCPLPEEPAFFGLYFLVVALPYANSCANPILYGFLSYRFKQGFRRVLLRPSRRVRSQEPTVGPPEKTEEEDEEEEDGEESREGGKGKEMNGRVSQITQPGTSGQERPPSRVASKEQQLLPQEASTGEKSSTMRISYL

[5] = target: Histamine H1 receptor (Homo sapiens, UniProt P35367); test: Binding affinity to human histamine H1 receptor
Histamine H1 receptor, sequence (P35367 whole entry): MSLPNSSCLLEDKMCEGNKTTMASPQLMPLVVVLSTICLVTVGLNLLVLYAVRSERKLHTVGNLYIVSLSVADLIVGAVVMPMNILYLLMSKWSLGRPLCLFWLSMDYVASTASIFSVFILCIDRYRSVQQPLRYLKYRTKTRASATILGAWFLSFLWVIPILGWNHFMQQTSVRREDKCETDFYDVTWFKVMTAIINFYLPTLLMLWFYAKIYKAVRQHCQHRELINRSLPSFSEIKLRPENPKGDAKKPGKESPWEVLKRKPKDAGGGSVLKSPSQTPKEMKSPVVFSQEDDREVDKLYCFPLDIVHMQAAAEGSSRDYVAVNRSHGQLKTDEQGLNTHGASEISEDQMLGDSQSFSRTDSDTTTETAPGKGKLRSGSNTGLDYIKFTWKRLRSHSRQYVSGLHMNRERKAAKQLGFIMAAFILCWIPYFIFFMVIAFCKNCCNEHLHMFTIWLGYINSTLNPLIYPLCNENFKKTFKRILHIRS

[6] = target: Voltage-gated inwardly rectifying potassium channel KCNH2 (Homo sapiens, UniProt Q12809); test: Binding affinity to human ERG channel
Voltage-gated inwardly rectifying potassium channel KCNH2, sequence (Q12809 whole entry): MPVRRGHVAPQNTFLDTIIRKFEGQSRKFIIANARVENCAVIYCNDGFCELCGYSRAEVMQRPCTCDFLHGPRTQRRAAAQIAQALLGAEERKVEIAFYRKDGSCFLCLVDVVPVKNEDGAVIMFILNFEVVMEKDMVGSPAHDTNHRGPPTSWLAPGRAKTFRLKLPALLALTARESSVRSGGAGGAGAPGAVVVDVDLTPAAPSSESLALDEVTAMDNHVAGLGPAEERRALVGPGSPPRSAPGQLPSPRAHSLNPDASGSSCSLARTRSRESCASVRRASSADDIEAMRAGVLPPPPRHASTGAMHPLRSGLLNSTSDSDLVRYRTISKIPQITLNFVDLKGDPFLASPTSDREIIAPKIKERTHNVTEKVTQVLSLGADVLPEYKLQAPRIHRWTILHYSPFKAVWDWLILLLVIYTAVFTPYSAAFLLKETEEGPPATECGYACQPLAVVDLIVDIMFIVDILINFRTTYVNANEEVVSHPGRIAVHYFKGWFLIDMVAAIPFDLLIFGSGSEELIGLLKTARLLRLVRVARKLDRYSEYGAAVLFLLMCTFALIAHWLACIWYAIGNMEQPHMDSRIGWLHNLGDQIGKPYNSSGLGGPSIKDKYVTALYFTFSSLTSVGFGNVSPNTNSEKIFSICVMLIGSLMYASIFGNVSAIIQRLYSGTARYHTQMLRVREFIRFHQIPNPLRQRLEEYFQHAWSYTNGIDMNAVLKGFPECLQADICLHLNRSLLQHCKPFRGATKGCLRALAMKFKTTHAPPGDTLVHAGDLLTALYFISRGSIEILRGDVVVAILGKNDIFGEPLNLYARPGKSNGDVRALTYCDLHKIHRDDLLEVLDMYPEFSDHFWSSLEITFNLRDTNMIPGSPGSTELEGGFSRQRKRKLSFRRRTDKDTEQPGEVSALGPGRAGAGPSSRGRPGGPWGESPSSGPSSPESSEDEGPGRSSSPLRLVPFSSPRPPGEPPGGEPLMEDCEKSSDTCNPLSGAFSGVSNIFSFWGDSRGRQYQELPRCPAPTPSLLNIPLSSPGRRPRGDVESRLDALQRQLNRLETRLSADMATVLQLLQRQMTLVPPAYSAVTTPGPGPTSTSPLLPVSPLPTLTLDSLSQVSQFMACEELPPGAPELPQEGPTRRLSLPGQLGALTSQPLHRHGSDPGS

Somatostatin receptor type 5, sequence (P35346 whole entry): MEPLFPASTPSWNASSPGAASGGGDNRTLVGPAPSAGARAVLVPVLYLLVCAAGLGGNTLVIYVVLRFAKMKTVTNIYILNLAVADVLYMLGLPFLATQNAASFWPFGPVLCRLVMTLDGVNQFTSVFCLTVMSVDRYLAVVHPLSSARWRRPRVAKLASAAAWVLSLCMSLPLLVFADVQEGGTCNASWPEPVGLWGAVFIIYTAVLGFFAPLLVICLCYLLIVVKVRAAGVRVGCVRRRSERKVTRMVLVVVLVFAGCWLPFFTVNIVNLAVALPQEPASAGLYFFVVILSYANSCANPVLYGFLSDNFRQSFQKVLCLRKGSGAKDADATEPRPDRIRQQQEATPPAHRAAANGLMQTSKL
Somatostatin receptor type 1, sequence (P30872 whole entry): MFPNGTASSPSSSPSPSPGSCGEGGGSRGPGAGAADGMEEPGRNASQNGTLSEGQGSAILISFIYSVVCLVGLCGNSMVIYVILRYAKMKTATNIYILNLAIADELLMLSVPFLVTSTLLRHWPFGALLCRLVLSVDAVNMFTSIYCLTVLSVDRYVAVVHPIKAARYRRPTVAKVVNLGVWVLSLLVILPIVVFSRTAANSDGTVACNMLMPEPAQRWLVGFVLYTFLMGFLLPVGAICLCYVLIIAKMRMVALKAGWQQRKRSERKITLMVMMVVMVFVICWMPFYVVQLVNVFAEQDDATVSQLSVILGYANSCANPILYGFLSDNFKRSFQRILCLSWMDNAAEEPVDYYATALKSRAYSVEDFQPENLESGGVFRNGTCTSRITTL

Row | Structure (SMILES) | Ki [1] [nM] | Ki [5] [nM] | other results
1 | CCOc1cc(CN2CCC(NC(=O)c3cncc(C)c3)CC2)ccc1Cl | 20 | 270 | Ki [2]: 5100 nM; Ki [3]: > 10000 nM; Ki [4]: > 10000 nM
2 | COc1cc(CN2CCC(NC(=O)c3cncc(C)c3)CC2)c(OC)c2ccccc12 | 40 |  | 
3 | COc1cc(CN2CCC(NC(=O)c3ccccc3)CC2)c(OC)c2ccccc12 | 120 |  | 
4 | COc1cc(CN2CCC(NC(=O)c3ccc(C(C)(C)C)cc3)CC2)c(OC)c2ccccc12 | 20 |  | 
5 | COc1cc(CN2CCC3(CC2)OC(=O)c2ccccc23)c(OC)c2ccccc12 | 1100 |  | 
6 | CCOc1cc(CN2CCC(NC(=O)c3cccc(S(C)(=O)=O)c3)CC2)ccc1Cl | 60 | > 5000 | IC50 [6]: 1300 nM
